Source: patent US9877916B2, “Methods and compositions for treating aged skin” (ELC Management LLC, priority 2016, dated 2018)

Tested on: normal human dermal fibroblasts (NHDF) from a donor
Test: collagen induction assay (Pro-collagen Type I EIA) in aged fibroblasts
Assay type: cell-based
Details: 72 hr, 18 ug/ml, positive control
Protocol: Moringa oleifera seed extract was tested at various concentrations for its ability to stimulate collagen production in normal human dermal fibroblasts (“NHDF”) from a donor in a collagen induction assay. Moringa oleifera extract diluted in dimethylsulfoxide (“DMSO”) (% concentrations 0.003125, 0.00625 and 0.0125), Moringa oleifera […] diluted in Dulbecco's Modified Eagle Medium supplemented with 10% Hyclone® bovine calf serum and 1% Cellgro® penicillin-streptomycin solution (“DMEM”) (% concentrations of 0.0000625, 0.000125, 0.00025, 0.0005), positive control (L-ascorbic acid, 18 ug/ml), and DMEM alone were tested. Cell Growth and Maintenance. Aged NHDF were obtained from ZenBio. Fibroblasts were cultured in DMEM 1× (Life Tech) supplemented with 10% bovine calf serum (Hyclone) and 1% PenStrep solution (Cellgro). Cells were regularly maintained; subcultured as needed. Normal human dermal fibroblasts (NHDF, aged) were plated on a 96-well plate in supplemented DMEM (as indicated above). […] Alamar Blue results were determined using a plate reader. Data was analyzed using the SoftMax Pro software and Excel. Collagen production was assessed using the Pro-collagen Type I collagen EIA Kit (Takara) as per manufacturer's protocol, exactly as described. Plate was read using the Gemini M2E plate reader and results were compared. […]

Question: For `O=C1O[C@H]([C@@H](O)CO)C(O)=C1O` [L-ascorbic acid (+Control), L-ascorbic acid], which “% increase in collagen induction” value is on record?
Answer: +16%
